# Assay results reported in EP0199238A1, “1,4-Dihydropyridine derivatives, process for their preparation and their use in medicaments” (BAYER AG, priority 1985, dated 1986).
# System: SH-Ratte
# Experiment: Blood pressure measurement in conscious rats (tail cuff, oral administration)
# Assay type: in vivo
# Conditions: Rattus norvegicus, oral by gavage, lowest dose that still gives at least 15 mm Hg fall in systolic blood pressure, read-out: Grenzdosis der antihypertensiven Wirkung
# Method: Blutdruckmessung bei wachen Ratten
# Meßmethode: In Anlehnung an das von Breuninger beschriebene Verfahren wird der Blutdruck am Schwanz der nicht narkotisierten Ratte unblutig mittels aufblasbarer Gummimanschette und Infraton-Pulsabnehmer D nach Boucke-Brecht gemessen. Die Tiere befinden sich während des ganzen Versuches, einschlieBlich einer 2-stündigen Vorperiode, einzeln in einem Wassermantel umgeben, auf ca. 30°C temperierten Kunststoffröhren. Die aufblasbare Gummimanschette sitzt an der Schwanzwurzel, der Pulsabnehmer 2-5 cm distal davon. Zur Erzielung gleichmäßiger Meßresultate ist für die wiederholten Messungen die Meßstelle am Schwanz mit Tusche markiert.
# Der gesamte Meßvorgang wird auf einem 2-Kanal-Direktschreiber oder einem Speicher-Oszillografen (Tektronix) registriert, im 1. Kanal die Pulsationen der Schwanzarterie, im 2. Kanal die Impulse eines Druckmarkengebers, der den jeweils in der Manschette herrschenden Druck anzeigt. Gemessen wird bei abfallendem Manschettendruck. Als Meßwert wird der in der Manschette herrschende Druck bei Wiederauftreten der Pulsationen benutzt. Er entspricht dem systolischen Blutdruck im Rattenschwanz. […]
# Bei der quantitativen Bestimmung von Dosis-Wirkungskurven wird für jedes Tier die Wirkung als mittlere prozentuale Blutdrucksenkung gegenüber dem Ausgangsblutdruck, gemittelt über den Versuchszeitraum von 6 Stunden, angegeben. […]
compound,measurement,value
"COC(=O)C1=C(C)NC(C)=C(C(=O)OCC(C)(C)O)C1c1ccccc1[N+](=O)[O-] (stereo not shown) [Beispiel 3, 1,4-Dihydro-2,6-dimethyl-4-(2-nitrophenyl)-pyridin-3,5-dicarbonsäure-(2-hydroxy-2-methyl-propyl)-methyl-ester]",minimal effective dose,1 mg/kg
